{"source": "patent US20240000826A1", "about": "“METHODS FOR THE TREATMENT OF CARDIOVASCULAR DISEASE WITH CYCLODEXTRINS” (Beren Therapeutics P.B.C., priority 2020, published 2024)", "key": {"cholesterol crystals [1]": {"system": "cholesterol crystals", "test": "cholesterol crystal dissolution capacity (CCDC) assay of plasma from treated subject", "type": "in vivo", "conditions": "one human subject; single-ascending IV doses 500, 750, 1,000, 1,000 mg/kg every 4 weeks; plasma pre-dose, post-dose, 1 hour and 24 hours post-dose; FIG. 3A", "protocol": "(§2) For each dose, whole blood was collected pre-dose, post-dose (line flush), 1 hour post-dose, and 24 hours post-dose. Plasma was separated from the whole blood and subjected to a cholesterol crystal dissolution capacity (CCDC) assay using techniques similar to those described in the literature. The CCDC assay measures the ability of a sample to dissolve cholesterol crystals."}, "cholesterol crystals [2]": {"system": "cholesterol crystals", "test": "CCDC of pre-dose blood plasma incubated ex vivo with 2-hydroxypropyl-beta-cyclodextrin", "design": "species or system human", "conditions": "pre-dose plasma treated ex vivo with 2-hydroxypropyl-beta-cyclodextrin; FIG. 3B", "protocol": "as §2"}, "24S-hydroxycholesterol": {"system": "24S-hydroxycholesterol", "test": "plasma level of 24S-hydroxycholesterol in treated subject", "type": "in vivo", "conditions": "one human subject; IV 500-1,000 mg/kg every 4 weeks as in Example 2; FIGS. 4A-4C", "text": "(§1) The increased production of 24S-hydroxycholesterol and 27-hydroxycholesterol enhance cholesterol metabolism, by acting as endogenous ligands for LXR transcription factors responsible for an anti-inflammatory gene signature."}, "27-hydroxycholesterol": {"system": "27-hydroxycholesterol", "test": "plasma level of 27-hydroxycholesterol in treated subject", "type": "in vivo", "conditions": "one human subject; IV 500-1,000 mg/kg every 4 weeks as in Example 2; FIGS. 4A-4C", "text": "as §1"}, "total cholesterol": {"system": "total cholesterol", "test": "total cholesterol level in treated subject", "type": "in vivo", "conditions": "one human subject; IV 500-1,000 mg/kg every 4 weeks as in Example 2; FIGS. 4A-4C", "text": "as §1"}, "ABCA1": {"system": "ABCA1", "test": "ABCA1 mRNA level in treated subject", "type": "in vivo", "conditions": "one human subject; IV 500-1,000 mg/kg every 4 weeks as in Example 2; FIGS. 5A-5D"}, "ABCG1": {"system": "ABCG1", "test": "ABCG1 mRNA level in treated subject", "type": "in vivo", "conditions": "one human subject; IV 500-1,000 mg/kg every 4 weeks as in Example 2; FIGS. 5A-5D"}}, "data": [{"substance": "2-hydroxypropyl-beta-cyclodextrin", "values": [{"measurement": "capability of blood plasma to dissolve cholesterol crystals (CCDC)", "setting": "cholesterol crystals [1]", "result": "increased capability of blood plasma to dissolve cholesterol crystals"}, {"measurement": "capacity of plasma to dissolve cholesterol crystals", "setting": "cholesterol crystals [2]", "result": "increased capacity to dissolve cholesterol crystals"}, {"measurement": "plasma level of 24S-hydroxycholesterol", "setting": "24S-hydroxycholesterol", "result": "increased plasma levels"}, {"measurement": "plasma level of 27-hydroxycholesterol", "setting": "27-hydroxycholesterol", "result": "increased plasma levels"}, {"measurement": "total cholesterol levels", "setting": "total cholesterol", "result": "remained stable"}, {"measurement": "ABCA1 mRNA levels", "setting": "ABCA1", "result": "increased mRNA levels"}, {"measurement": "ABCG1 mRNA levels", "setting": "ABCG1", "result": "increased mRNA levels"}]}]}
